Laboratory results: US4044043A, “Derivatives of 9-oxo-13-trans-prostenoic acid esters” (American Cyanamid Company, priority 1975, dated 1977)
≈ marks a conversion by molar mass, not a printed value. Like-named read-outs stand apart in the source and are kept apart here.

Tests used:
[1] = system: bronchospasms elicited by histamine; assay: Bronchodilator Activity (Konzett Assay) against histamine; type: in vivo, guinea pigs; details: Cavia porcellus; three logarithmic cumulative intravenous doses
Method in brief: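 Guinea pigs given intravenous spasmogen (5-hydroxytryptamine, histamine or acetylcholine) per Konzett procedure. ED50 derived from three logarithmic cumulative intravenous doses of test compound.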

[2] = system: dl-PGE1-induced contraction of gerbil colon; assay: Inhibition of dl-PGE1-Induced Contraction of Gerbil Colon (prostaglandin antagonist action); type: cell-based, gerbils (Meriones unguiculatus); details: Meriones unguiculatus, 1 min
Method in brief: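 Ascending colon from male gerbils, held in De Jalon's solution at 37 °C under 95% O2/5% CO2 with 0.5 g resting tension, contraction recorded isometrically. 1 min compound exposure, then 1 min dl-PGE1 at 200 ng/ml (maximal) or 20 ng/ml (sub-maximal). Approximate ID50 taken from a concentration series against the preceding agonist-only cycle.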

[3] = system: diastolic blood pressure; assay: Prostaglandin-like hypotensive activity in anesthetized rats (minimal dose for about 10 mm. decrease in diastolic blood pressure); type: in vivo, Male Wistar strain rats; details: Rattus norvegicus; intravenous; decrease of about 10 mm. in diastolic blood pressure
Method in brief: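 Male Wistar rats (~250 g), pentobarbital 30 mg./kg. i.v. and hexamethonium 2 mg./kg. i.v., iliac artery cannulated for blood pressure. Compounds in saline-Tween 80 given i.v. at 0.1–10.0 mg./kg.; value is the minimal dose giving ~10 mm. drop in diastolic pressure.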

[4] = sub-maximal challenge, 20 ng./ml. dl-PGE1, 50% inhibition of maximum response, read-out: ID50 vs. 20 ng. of PGE1/ml.
[5] = 200 ng./ml. dl-PGE1, read-out: ID50 vs. 200 ng. of PGE1/ml.

SMILES	IC50 [2, 4]	IC50 [2, 5]	ED50 [1]	minimal effective dose [3]
CC/C=C\CC/C=C/[C@@H]1CCC(=O)[C@H]1CCCCCCC(=O)O (relative stereo) [9-oxo-13-trans-17-cis-prostadienoic acid]	2.5 to 5 µg/mL (≈ 7.8 to 15.6 µM)		0.65 mg/kg	0.2 mg/kg
CCCCCC/C=C/[C@H]1CCC(=O)[C@@H]1CCCCCCC(=O)O (relative stereo) [9-oxo-13-trans-prostenoic acid]	1.5 to 2 µg/mL (≈ 4.65 to 6.2 µM)	9 to 10 µg/mL (≈ 27.9 to 31 µM)	0.232 mg/kg	0.4 mg/kg
CC(C)CC/C=C/[C@@H]1CCC(=O)[C@H]1CCCCCCC(=O)O (relative stereo) [17-methyl-9-oxo-19,20-dinor-13-trans-prostenoic acid]	0.25 to 0.5 µg/mL (≈ 0.81 to 1.62 µM)		1.07 mg/kg	0.5 mg/kg
O=C(O)CCCCCC[C@@H]1C(=O)CC[C@H]1/C=C/CCCCl (relative stereo) [20-chloro-9-oxo-17,18,19-trinor-13-trans-prostenoic acid]	1 to 2.5 µg/mL (≈ 3.18 to 7.94 µM)		0.928 mg/kg	2 to 8 mg/kg
CCCCCCC/C=C/[C@@H]1CCC(=O)[C@H]1CCCCCCC(=O)O (relative stereo) [20-methyl-9-oxo-13-trans-prostenoic acid]	2 to 2.5 µg/mL (≈ 5.94 to 7.43 µM)		0.126 mg/kg	0.5 to 2 mg/kg

Continued, in another order:

IC50 [2, 4]	IC50 [2, 5]	SMILES	ED50 [1]	minimal effective dose [3]
2.5 to 5 µg/mL (≈ 7.43 to 14.9 µM)		CCCCCC/C=C/[C@@H]1CCCC(=O)[C@H]1CCCCCCC(=O)O (relative stereo) [9-oxo-10a-homo-13-trans-prostenoic acid]	10.1 mg/kg	0.2 mg/kg
	10 to 15 µg/mL (≈ 35.7 to 53.5 µM)	CCC/C=C/[C@H]1CCC(=O)[C@@H]1CCCCCCC(=O)O (relative stereo) [9-oxo-18,19,20-trinor-13-trans-prostenoic acid]	0.837 mg/kg	
5 µg/mL (≈ 16.2 µM)		CCCCC/C=C/[C@H]1CCC(=O)[C@@H]1CCCCCCC(=O)O (relative stereo) [9-oxo-20-nor-13-trans-prostenoic acid]	0.126 mg/kg	0.5 to 1 mg/kg
5 to 10 µg/mL (≈ 14 to 28 µM)		O=C(O)CCCCCC[C@H]1C(=O)CC[C@@H]1/C=C/CCCCCCCl (relative stereo) [20-chloro-9-oxo-13-trans-prostenoic acid]	1.22 mg/kg	0.5 mg/kg
